Experimental data: US11851389B2, “Cationic lipids for nucleic acid delivery and preparation thereof” (RAMOT AT TEL-AVIV UNIVERSITY LTD., priority 2016, dated 2023)
Entries after “also recorded” stand apart in the source; their conditions may differ.

How the values were obtained:
[1] = tested on: Human multiple myeloma suspension cells (U266); experiment: PLK1 expression by qPCR after siPLK1-LNPs; assay type: cell-based; conditions: U266, 48 hrs, normalized to LNPs-ctl siRNA treated cells
Procedure: The mRNA levels of pololike kinase 1 (PLK1 gene) in cells was quantified by real-time PCR, forty eight or Seventy-two hours post-transfection. Total RNA was isolated using the E-Z RNA purification kit (Biological industries, Beit Haemek, Israel), and 1 μg of RNA from each sample was reverse transcribed into cDNA using the High Capacity cDNA Reverse Transcription Kit (Applied Biosystems, Foster City, CA), Quantification of cDNA (5 ng total) was performed on the step one Sequence Detection System (Applied Biosystems, Foster City, CA) using syber green (Applied Biosystems). GAPDH was chosen as a housekeeping gene.
Human multiple myeloma suspension cells (U266) were incubated with LNPs containing siPLK1 at different concentrations for 48 hrs. PLK1 expression was measured by qPCR. PLK1-mRNA levels were normalized to LNPs-ctl siRNA treated cells.

[2] = tested on: Human B-cell lymphoma suspension cells (RPMI-8226); experiment: Cell viability after PLK1 silencing, XTT assay; assay type: cell-based; conditions: RPMI-8226, 48 hrs
Procedure: Human B-cell lymphoma suspension cells (RPMI-8226) were incubated with siPLK1-LNPs or siCtl-LNPs composed of either lipid 38 or 55 at different concentrations for 48 hrs. Cell viability affected by PLK1 down regulation was measured by XTT assay.

[3] = tested on: C57BL6/j mice; experiment: In vivo delivery of luciferase mRNA to liver, intravenous, bioluminescence imaging; conditions: intravenously, 1 mg/kg body weight
Procedure: LNPs composed of either lipid 54 or lipid 38 formulated with luciferase mRNA were administered intravenously into C57BL6/j mice at 1 mg/kg body weight. After 8 hrs, luciferase expression was measured by bioluminescence imaging system Biospace.
LNPs composed of lipid 38 formulated with luciferase mRNA were administered intravenously into C57BL6/j mice at 1 mg/kg body weight. After 8 hrs and 24 hrs of administration, luciferase expression was measured by bioluminescence imaging system Biospace.

[4] = tested on: Human multiple myeloma suspension cells (U266); experiment: Cell viability after PLK1 silencing, XTT assay; assay type: cell-based; conditions: U266, 48 hrs
Procedure: Human multiple myeloma suspension cells (U266) were incubated with siPLK1-LNPs or siCtl-LNPs composed of either lipid 38 or 55 at different concentrations for 48 hrs. Cell viability affected by PLK1 down regulation was measured by XTT assay.

[5] = tested on: Cynomolgus monkeys; experiment: Liver toxicity (serum ALT, AST) in non-human primate; assay type: in vivo; conditions: single i.v. 0.5 mg/kg, particles with siNC5, serum at 1 and 24 h, compared with MC3
Procedure: Cynomolgus monkeys (n=2 per group, males) received a single I.v. administration (1 ml/kg) of (0.5 mg/kg) of MC3 particles with siNC5 and lipid 38-based particles with siNC5 (0.5 mg/Kg). At 1 and 24 h post administration serum was collected at and analyzed for ALT, AST (by Roch Cobra Auto analyzer). Each data point is an average of 2 animals±SEM.

[6] = tested on: murine macrophage cells (RAW 264.7); experiment: In vitro delivery of luciferase mRNA, luminometer; assay type: cell-based; conditions: 18 hrs
Procedure: Hard to transfect murine macrophage cells (RAW 264.7) were treated with LNPs composed of either Lipid38 or Lipid 54 and formulated with luciferase mRNA at different amounts of mRNA. After 18 hrs luciferase expression was measured by luminometer.

[7] = LNP size distribution, PDI and ζ potential by dynamic light scattering; assay type: physicochemical; conditions: LNP-siRNA formulations
Procedure: LNPs were prepared by using microfluidic micro mixture (Precision NanoSystems, Vancouver, BC, Canada) as described by Cohen et. al. One volume of lipid mixtures (cationic lipid, DSPC, Chol, DMG-PEG and DSPE-PEG Mal at 50:10:38:1.5:0.5 mole ratio, […] total lipid concentration) in ethanol and three volumes of siRNA (1:16 w/w siRNA to lipid) containing acetate buffer solutions were injected through the micro mixer at a combined flow rate of 2 mL/minute (0.5 mL/min for ethanol and 1.5 mL/min for aqueous buffer). For labeled LNPs, 10% of Alexa-647 labeled siRNA were incorporated. For Cy5 labeled particles, 10% Cy5 labeled non-targeted siRNA was used. The resultant mixture was dialyzed against PBS (pH 7.4) for 16 h to remove ethanol.
LNPs size distribution and ζ potential were determined by dynamic light scattering using a Malvern nano ZS ζ-sizer (Malvern instruments, UK). For size measurements, LNPs were diluted 1:20 in PBS. […] For ζ potential measurements, LNPs were diluted 1:200 in DDW. In some cases, as indicated, size and zeta potential measurements were performed in water.

[8] = tested on: Human multiple myeloma suspension cells (MM1); experiment: Cell viability after PLK1 silencing, XTT assay; assay type: cell-based; conditions: MM1, 48 hrs
Procedure: Human multiple myeloma suspension cells (MM1) were incubated with siPLK1-LNPs or siCtl-LNPs composed of either lipid 38 or 55 at different concentrations for 48 hrs. Cell viability affected by PLK1 down regulation was measured by XTT assay.

[9] = tested on: Human colon carcinoma cells (HCT 116); experiment: In vitro expression of LUC pDNA, luminometer; assay type: cell-based; conditions: HCT 116, LNPs-LUC pDNA with DOPE, Chol, PEG-DMG, 48 hrs
Procedure: Human colon carcinoma cells (HCT 116) were incubated with LNPs-LUC pDNA at different concentrations for 48 hrs. Luciferase expression was measured by luminometer. Lipofectamine 2000 (Lipo 2000) was used as positive control. LNPs were composed of lipid 38 and different amounts of co-lipid DOPE, along with other co-lipids such as Chol, PEG-DMG.

[10] = tested on: C57BL6/j mice; experiment: In vivo delivery of luciferase mRNA to muscle cells, intramuscular, bioluminescence imaging; conditions: i.m., 1 mg/kg body weight
Procedure: LNPs composed of either lipid 54 or lipid 38 formulated with luciferase mRNA were administered intramuscularly in to C57BL6/j mice at 1 mg/kg body weight. Luciferase expression was measured by bioluminescence imaging system Biospace: (a) after 8 hrs of i.m. administration; and (b) after 24 hrs. […] The expression was still high 24 hrs after the administration of LNPs indicating the efficiency of these lipids in delivering mRNA in vivo.

[11] = tested on: Human colon carcinoma cells (HCT116); experiment: Toxicity of LNPs with ctl siRNA, XTT cell viability; assay type: cell-based; conditions: 72 hrs
Procedure: Human colon carcinoma cells (HCT116) were incubated with LNPs with ctl siRNA (see methods) for 72 hrs. The cell viability was measured by XTT assay. Toxicity of LNPs composed of either lipid 38 or lipid 55 is compared with gold standard LNPs composed of Dlin-MC3-DMA.

With CCCCC/C=C\C/C=C\CCCCCCCCN(CCCCCCCC/C=C\C/C=C\CCCCC)CCOC(=O)CCCN(C)C [Lipid 38] the “PLK1 expression, siPLK1-LNPs” value [1] was “efficiently down regulate”, the “Cell viability, siCtl-LNPs” value [2] was “no effect on the cell viability” and the “Cell viability, siPLK1-LNPs” value [2] was “dose dependent effect on B-cell lymphoma cancer cell viability”. For the same molecule, the “Luciferase expression in liver, 8 hrs versus 24 hrs” value [3] was “high after 8 hrs compared to after 24 hrs”, the “Luciferase expression in liver” value ([3]; 8 hrs, 1 mg/kg) was “significant amount of luciferase in mouse liver compared to LNPs composed of lipid 54; also recorded: significant amount of luciferase expression was observed in liver” and the “Cell viability, siCtl-LNPs” value [4] was “no effect on the cell viability”. For the same molecule, the “Cell viability, siPLK1-LNPs” value [4] was “more effect on cell viability compared to Dlin-MC3-DMA LNPs”, the “Liver toxicity (ALT, AST)” value [5] was “No liver toxicity” and the “Dose dependence of luciferase expression” value ([6]; RAW 264.7, different amounts of mRNA) was “dose dependent expression was observed”. For the same molecule, the Luciferase expression ([6]; RAW 264.7, luciferase mRNA LNPs) was “efficiently compared to lipid 54-LNPs”, the “Zeta-potential (mV)” value [7] was 6.7 mV and the PDI ([7]; DLS) was 0.08. The “Size (d · nm)” value ([7]; DLS) was 59.0 nm, the “Cell viability, siCtl-LNPs” value [8] was “no effect on the cell viability” and the “Cell viability, siPLK1-LNPs” value [8] was “dose dependent effect on multiple myeloma cancer cell viability”. The “Delivery of pDNA to the nucleus” value [9] was “efficiently delivering pDNA to the nucleus”, the “Luciferase expression after 8 hrs” value ([10]; 8 hrs) was “significant amounts of luciferase” and the “Luciferase expression after 24 hrs” value ([10]; 24 hrs) was “still high”. For the same molecule, the “Toxicity of LNPs (cell viability)” value [11] was “less toxic than LNPs composed of Dlin-MC3-DMA”.
